# From ChEMBL document CHEMBL1201862, “PubChem BioAssay data set” (2004)
# The source made the active and inactive calls.
# Assays:
# [1] = HEp-2 cell cytotoxicity, dose response, cytotoxicity control for RSV inhibitor project, HTS (AID 2410); assay type: functional; settings: human respiratory syncytial virus
# [2] = off-target signal loss in HeLa-CEM21 co-culture – HeLa F-luc CTL cells, cherry-picked, counter-screen for HIV-1 Env fusion inhibitor project, dose response (AID 652040); assay type: functional, cell-based;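 note: potency for signal decrease marking cytotoxic or nonspecific inhibition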
# [3] = inhibitors of HIV Env-driven cell fusion, dose response, cherry-pick (AID 652057); assay type: functional, cell-based
# [4] = inhibitors of clade B AD8 Env fusion, dose response, cell-based, cherry-pick (AID 652062); assay type: functional;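 note: luciferase signal from cell-cell fusion driven by HIV-1 clade B AD8 Env; potency is for inhibitors of fusion seen as a drop in luminescence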
# [5] = ZM109 Env clade C HIV-1 fusion inhibitors, dose response, HeLa effector, CEM target cells, luciferase, cherry-pick (AID 652058); assay type: functional, cell-based
# [6] = molecular target: T1, DNA repair protein RAD52 homolog (Homo sapiens, UniProt P43351); assay type: functional, biochemical
# T1 sequence (P43351 whole entry): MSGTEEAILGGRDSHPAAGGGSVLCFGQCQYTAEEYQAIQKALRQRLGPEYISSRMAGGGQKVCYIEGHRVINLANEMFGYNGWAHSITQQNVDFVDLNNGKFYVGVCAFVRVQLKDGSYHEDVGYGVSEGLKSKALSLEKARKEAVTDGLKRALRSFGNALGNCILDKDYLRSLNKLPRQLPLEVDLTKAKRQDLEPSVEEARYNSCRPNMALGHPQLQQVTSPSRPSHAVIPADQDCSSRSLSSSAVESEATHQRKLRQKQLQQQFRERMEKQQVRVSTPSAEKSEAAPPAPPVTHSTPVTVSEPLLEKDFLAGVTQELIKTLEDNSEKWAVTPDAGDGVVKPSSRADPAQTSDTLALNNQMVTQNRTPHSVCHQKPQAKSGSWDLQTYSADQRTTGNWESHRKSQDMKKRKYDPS
# [7] = molecular target: T2, Ubiquitin-conjugating enzyme E2 N (Homo sapiens, UniProt P61088); assay type: functional;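 note: Dose-response confirmation in a TR-FRET assay detecting UBC13-driven polyubiquitin chain formation, inhibition measured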
# T2 sequence (P61088 whole entry): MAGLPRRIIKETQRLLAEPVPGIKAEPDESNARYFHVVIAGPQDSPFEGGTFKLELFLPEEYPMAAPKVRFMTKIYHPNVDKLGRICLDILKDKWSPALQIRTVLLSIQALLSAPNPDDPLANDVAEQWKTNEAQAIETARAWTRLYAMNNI
# Cytochrome P450 2C9 = Cytochrome P450 2C9 (Homo sapiens, UniProt P11712)
# [8] = molecular target: T3, Short transient receptor potential channel 4 (Mus musculus, UniProt Q9QUQ5); assay: mouse TRPC4 channel inhibitors, dose response, cell-based, HEK293 TRPC4/mu-opioid, Fluo-4 calcium (AID 434942); assay type: functional;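 note: potency of inhibitors blocking the TRPC4 calcium response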
# T3 sequence (Q9QUQ5 whole entry): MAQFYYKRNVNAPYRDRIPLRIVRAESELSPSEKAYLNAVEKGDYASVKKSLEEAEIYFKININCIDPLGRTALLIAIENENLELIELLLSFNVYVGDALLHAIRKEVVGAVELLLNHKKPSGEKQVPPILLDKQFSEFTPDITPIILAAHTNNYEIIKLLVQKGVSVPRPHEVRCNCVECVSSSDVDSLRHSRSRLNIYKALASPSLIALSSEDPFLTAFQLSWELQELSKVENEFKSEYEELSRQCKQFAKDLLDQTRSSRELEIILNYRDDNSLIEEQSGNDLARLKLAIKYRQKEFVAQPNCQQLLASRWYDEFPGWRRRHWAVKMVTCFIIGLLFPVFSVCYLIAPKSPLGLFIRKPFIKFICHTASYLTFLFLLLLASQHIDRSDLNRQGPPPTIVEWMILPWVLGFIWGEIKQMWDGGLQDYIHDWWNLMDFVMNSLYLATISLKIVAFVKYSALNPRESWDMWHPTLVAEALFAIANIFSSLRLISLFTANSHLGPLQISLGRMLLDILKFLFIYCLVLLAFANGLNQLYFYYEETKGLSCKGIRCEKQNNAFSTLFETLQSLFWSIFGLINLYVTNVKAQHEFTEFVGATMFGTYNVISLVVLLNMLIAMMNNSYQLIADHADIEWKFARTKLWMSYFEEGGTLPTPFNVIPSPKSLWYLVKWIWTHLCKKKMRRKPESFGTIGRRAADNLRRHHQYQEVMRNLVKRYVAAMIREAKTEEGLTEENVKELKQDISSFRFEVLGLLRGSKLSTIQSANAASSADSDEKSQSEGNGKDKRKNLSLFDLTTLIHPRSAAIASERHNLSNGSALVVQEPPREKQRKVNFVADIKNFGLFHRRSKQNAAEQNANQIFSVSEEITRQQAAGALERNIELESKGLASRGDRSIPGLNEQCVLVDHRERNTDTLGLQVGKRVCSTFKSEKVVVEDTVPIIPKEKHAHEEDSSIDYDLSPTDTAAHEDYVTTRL
# Cytochrome P450 2D6 = Cytochrome P450 2D6 (Homo sapiens, UniProt P10635);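 note: CYP2D6 member of a cytochrome P450 panel assay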
# H4 = assay: Luminescence Cell-Based Dose Response HTS to Identify Activators of 5'UTR Stem-Loop Driven Prion Protein mRNA Translation in H4 Neuroglioblastoma Cells. [Related pubchem assays: 1829 (Project Summary), 1814 (Primary HTS)]; assay type: functional; settings: Homo sapiens
# Cytochrome P450 3A4 = Cytochrome P450 3A4 (Homo sapiens, UniProt P08684);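 note: CYP3A4 tested as one member of a cytochrome P450 panel screen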
# [9] = Luminescence Cell-Based Dose Response HTS to Identify Activators of Luciferase Translation or Activity in H4 […] Cells. [Related pubchem assays: 1829 (Project Summary), 1814 (Primary HTS)]; assay type: functional
# [10] = Luminescence Cell-Based Dose Confirmation HTS to Identify Activators of 5'UTR Stem-Loop Driven Alpha-Synuclein mRNA Translation in H4 Neuroglioblastoma Cells. [Related pubchem assays: 1829 (Project Summary), 1814 (Primary HTS)]; assay type: functional
# Streptococcus = assay: Group A Streptococcus viability loss, dose response, counter-screen for streptokinase expression inhibitor project, luminescence, BacTiterGlo (AID 1915); assay type: functional, organism-based;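 note: potency for reduction of bacterial viability or growth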
# [11] = tested on: Streptococcus sp. 'group A'; assay: growth inhibition of control SK(-) GAS strain, dose response, counter-screen for streptokinase expression inhibitor project, luminescence, kanamycin, BacTiterGlo, confirmation (AID 1900); assay type: functional, organism-based
# INS1 = assay: beta cell apoptosis inhibitors, cytokine rescue, dose response, luminescence, retest (AID 449756); assay type: functional, cell-based; settings: Rattus norvegicus, INS1;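 note: cell death triggered by IL-1 beta plus TNF-alpha plus IFN-gamma mixture; protective hits raise ATP signal compared with cytokine alone wells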
# Large T antigen = Large T antigen (Simian virus 40, UniProt P03070); assay type: functional, Betapolyomavirus macacae;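 note: Confirmatory-stage PubChem screen for compounds that inhibit SV40 T antigen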
# [12] = microbe, parasite or virus in culture; assay type: functional; settings: Mycobacterium tuberculosis
# Streptokinase A = molecular target: T4, Streptokinase A (Streptococcus pyogenes serotype M1, UniProt P10520); assay: S. pyogenes streptokinase expression inhibitors, potency, dose response, plasminogen activation absorbance, OD405 (AID 1914); assay type: functional, Streptococcus pyogenes M1 GAS;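 note: secreted streptokinase activity via plasminogen activation per viability signal from cell pellet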
# T4 sequence (P10520 whole entry): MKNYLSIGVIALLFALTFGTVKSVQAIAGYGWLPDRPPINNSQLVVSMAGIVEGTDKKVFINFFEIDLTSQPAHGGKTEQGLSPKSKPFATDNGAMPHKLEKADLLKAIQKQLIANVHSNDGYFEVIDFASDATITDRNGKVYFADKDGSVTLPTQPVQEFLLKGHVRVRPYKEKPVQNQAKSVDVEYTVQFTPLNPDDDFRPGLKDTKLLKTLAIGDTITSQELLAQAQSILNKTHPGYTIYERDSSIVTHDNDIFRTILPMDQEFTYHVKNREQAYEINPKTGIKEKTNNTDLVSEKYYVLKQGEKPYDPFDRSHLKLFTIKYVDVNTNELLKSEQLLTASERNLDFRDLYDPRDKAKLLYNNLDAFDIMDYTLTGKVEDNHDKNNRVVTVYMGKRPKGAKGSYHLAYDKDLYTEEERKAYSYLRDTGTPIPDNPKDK
# Cytochrome P450 1A2 = molecular target: T5, Cytochrome P450 1A2 (Homo sapiens, UniProt P05177);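 note: PubChem cytochrome P450 panel assay, CYP1A2 panel member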
# T5 sequence (P05177 whole entry): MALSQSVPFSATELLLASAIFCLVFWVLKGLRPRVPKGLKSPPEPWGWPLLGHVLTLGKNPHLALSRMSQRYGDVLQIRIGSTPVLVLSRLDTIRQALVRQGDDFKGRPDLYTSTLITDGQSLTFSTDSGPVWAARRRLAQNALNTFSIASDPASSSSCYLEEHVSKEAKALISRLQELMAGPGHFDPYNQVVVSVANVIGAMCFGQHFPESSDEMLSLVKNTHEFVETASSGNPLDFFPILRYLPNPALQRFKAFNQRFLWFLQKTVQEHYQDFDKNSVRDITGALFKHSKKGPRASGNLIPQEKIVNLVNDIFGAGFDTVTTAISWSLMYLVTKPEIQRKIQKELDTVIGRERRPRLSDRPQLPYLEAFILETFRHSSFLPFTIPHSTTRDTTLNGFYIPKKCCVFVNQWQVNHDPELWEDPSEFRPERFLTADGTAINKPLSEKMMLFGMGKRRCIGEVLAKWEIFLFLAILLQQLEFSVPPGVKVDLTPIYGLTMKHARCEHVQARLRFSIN
# Cytochrome P450 2C19 = Cytochrome P450 2C19 (Homo sapiens, UniProt P33261); assay: Cytochrome panel assay with activity outcomes. Panel member name: p450-cyp2c19 Compounds with AC50 equal or less than 10 uM are considered active; assay type: functional; settings: read-out: AC50
# [13] = inhibitors of intracellular T. cruzi replication, confirmation, NIH3T3 host cells, beta-gal luminescence (AID 2044); assay type: functional, cell-based;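 note: intracellular parasites grown in NIH/3T3 mouse fibroblasts as host cells; luminescent beta-galactosidase reporter signal from transgenic T. cruzi replicating inside host cells; inhibitors lower the luminescence signal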
# [14] = cytotoxicity toward NIH3T3 fibroblasts, dose response, counter-screen, cell-based, ATP luminescence, mouse fibroblasts (AID 2010); assay type: functional;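 note: cells exposed to compound for about 90 hours before reading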
# [15] = P. falciparum Dd2 growth inhibitors, dose response, SYBR Green, cherry-picked samples (AID 1159567); assay type: functional, cell-based
# [16] = HepG2 cell cytotoxicity, dose response, cytotoxicity control, cherry-picked samples (AID 1159577); assay type: functional, cell-based
# Cytochrome P450 2C19, sequence (P33261 whole entry): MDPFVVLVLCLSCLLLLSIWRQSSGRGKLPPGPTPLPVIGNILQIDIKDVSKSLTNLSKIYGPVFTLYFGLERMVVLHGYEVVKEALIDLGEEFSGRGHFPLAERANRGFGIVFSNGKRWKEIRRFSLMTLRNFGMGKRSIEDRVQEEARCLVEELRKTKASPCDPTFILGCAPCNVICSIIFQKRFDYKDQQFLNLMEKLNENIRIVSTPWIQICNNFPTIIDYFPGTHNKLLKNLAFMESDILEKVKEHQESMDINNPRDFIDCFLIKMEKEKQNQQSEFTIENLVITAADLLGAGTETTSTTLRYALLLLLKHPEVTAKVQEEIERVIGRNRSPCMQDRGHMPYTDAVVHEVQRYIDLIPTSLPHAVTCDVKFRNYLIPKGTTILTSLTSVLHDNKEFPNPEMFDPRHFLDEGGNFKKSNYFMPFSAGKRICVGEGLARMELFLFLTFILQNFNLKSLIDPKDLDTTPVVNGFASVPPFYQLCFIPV
# Cytochrome P450 2C9, sequence (P11712 whole entry): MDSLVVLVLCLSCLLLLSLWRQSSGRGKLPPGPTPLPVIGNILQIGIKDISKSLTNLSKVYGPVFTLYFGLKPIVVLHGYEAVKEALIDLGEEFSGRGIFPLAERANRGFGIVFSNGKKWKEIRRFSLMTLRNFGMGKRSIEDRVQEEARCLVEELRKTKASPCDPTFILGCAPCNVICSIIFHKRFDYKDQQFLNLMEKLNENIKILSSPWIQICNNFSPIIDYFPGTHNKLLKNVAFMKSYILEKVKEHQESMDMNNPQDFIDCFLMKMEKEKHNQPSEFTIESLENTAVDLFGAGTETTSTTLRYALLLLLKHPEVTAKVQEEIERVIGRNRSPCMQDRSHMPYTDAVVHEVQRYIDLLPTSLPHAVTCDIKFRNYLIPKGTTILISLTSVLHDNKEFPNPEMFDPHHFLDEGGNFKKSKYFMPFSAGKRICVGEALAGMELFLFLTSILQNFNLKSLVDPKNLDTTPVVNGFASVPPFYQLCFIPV
# Large T antigen, sequence (P03070 whole entry): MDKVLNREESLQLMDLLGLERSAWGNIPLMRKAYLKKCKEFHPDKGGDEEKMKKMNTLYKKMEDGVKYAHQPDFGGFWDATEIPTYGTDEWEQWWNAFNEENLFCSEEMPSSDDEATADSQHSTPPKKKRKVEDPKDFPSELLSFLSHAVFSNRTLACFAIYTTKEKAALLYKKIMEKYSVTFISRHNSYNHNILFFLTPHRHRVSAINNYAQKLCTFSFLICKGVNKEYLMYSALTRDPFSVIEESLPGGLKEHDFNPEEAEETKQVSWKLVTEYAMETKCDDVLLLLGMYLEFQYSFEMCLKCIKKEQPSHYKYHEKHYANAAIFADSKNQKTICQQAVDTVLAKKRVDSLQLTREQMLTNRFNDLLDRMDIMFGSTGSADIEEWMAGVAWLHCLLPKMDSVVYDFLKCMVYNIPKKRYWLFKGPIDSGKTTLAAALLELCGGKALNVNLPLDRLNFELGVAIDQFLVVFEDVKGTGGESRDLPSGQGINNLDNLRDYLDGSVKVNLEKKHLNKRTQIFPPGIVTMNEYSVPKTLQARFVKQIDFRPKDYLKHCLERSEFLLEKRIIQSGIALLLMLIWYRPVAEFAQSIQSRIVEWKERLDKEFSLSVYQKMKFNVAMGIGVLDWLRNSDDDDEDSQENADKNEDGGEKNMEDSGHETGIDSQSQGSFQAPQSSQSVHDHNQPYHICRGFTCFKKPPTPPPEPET
# Cytochrome P450 2D6, sequence (P10635 whole entry): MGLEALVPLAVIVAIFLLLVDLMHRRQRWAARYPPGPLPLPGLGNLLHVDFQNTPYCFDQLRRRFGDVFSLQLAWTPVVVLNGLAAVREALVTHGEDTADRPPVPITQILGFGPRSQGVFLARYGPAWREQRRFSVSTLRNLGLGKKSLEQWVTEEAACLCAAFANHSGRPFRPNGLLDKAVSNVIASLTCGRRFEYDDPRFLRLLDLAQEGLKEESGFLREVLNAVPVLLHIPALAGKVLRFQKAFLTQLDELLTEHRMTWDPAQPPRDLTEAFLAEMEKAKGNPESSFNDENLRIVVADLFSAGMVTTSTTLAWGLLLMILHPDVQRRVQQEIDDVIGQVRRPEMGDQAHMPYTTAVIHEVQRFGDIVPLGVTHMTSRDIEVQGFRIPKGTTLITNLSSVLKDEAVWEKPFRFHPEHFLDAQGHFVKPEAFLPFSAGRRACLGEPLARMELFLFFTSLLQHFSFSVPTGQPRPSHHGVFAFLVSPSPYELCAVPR
# Cytochrome P450 3A4, sequence (P08684 whole entry): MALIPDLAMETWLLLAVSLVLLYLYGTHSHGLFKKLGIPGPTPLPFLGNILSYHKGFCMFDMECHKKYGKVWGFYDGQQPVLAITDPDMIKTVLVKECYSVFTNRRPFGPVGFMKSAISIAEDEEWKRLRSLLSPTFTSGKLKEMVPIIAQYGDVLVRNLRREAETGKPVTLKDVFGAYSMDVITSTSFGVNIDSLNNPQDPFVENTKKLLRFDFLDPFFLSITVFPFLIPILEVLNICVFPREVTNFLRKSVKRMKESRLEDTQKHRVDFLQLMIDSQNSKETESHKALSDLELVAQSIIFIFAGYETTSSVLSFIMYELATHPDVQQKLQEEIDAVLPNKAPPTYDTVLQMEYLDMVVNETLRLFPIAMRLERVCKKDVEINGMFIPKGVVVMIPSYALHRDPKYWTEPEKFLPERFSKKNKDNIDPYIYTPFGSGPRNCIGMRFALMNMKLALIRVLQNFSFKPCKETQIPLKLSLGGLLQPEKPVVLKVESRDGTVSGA
smiles,measurement,setting,value
COc1cc(-c2nc3oc4ccccc4c(=O)c3c(=O)n2Cc2ccco2)cc(OC)c1OC,CC50,[1],> 50 µM (active)
same,AC50,[2],5.7 µM (active)
same,AC50,[3],2.38 µM (active)
same,AC50,[4],4.1 µM (active)
same,AC50,[5],0.584 µM (active)
Cc1cc(C)c2nc(NCCCNC(=S)NCCCN(C)C)c(C#N)cc2c1,AC50,[6],7.63 µM (active)
same,IC50,[7],> 20 µM (inactive)
O=C(CCCCCN1C(=O)c2ccccc2C1=O)NCCc1nc2ccccc2[nH]1,IC50,[7],> 20 µM (inactive)
COc1ccc2c(c1)[C@H]1[C@H](CO2)[C@H](c2ccccc2)[C@]2(C)C(=O)Nc3cc(OC)c(OC)cc3C(=O)N12,AC50,[2],25.6 µM (active)
same,AC50,[3],16.1 µM (active)
same,AC50,[4],27.3 µM (active)
same,AC50,[5],18.9 µM (active)
CN1[C@@H]2CC[C@H]1CC(O)C2 (stereo partly specified),AC50,Cytochrome P450 2C9,inconclusive
Cc1cccc(C)c1N1CCc2c[nH]nc21,EC50,[8],7.5 µM (active)
CCOc1ccc2nc(SCc3ccccc3C#N)sc2c1,AC50,Cytochrome P450 2D6,17.8 µM (inconclusive)
same,EC50,H4,0.7 µM (active)
same,AC50,Cytochrome P450 3A4,12.6 µM (inconclusive)
same,EC50,[9],0.884 µM (active)
same,EC50,[10],1.1 µM (active)
same,AC50,Cytochrome P450 2C9,inconclusive
COc1cnc(-c2ccccn2)nc1Oc1ccc(Cl)c2ccccc12,EC50,Streptococcus,20.1 µM (inconclusive)
same,EC50,[11],1.77 µM (active)
same,AC50,INS1,4.86 µM (active)
same,IC50,Large T antigen,7.48 µM (active)
same,CC50,[12],16.9 µM (active)
same,EC50,Streptokinase A,> 150 µM (not active)
Fc1cccc(Cl)c1CSc1nc[nH]n1,AC50,Cytochrome P450 1A2,10 µM (inconclusive)
same,AC50,Cytochrome P450 2C19,39.8 µM (inconclusive)
same,AC50,Cytochrome P450 2C9,inconclusive
Cc1cc(-c2cn3ccccc3n2)c(C)n1-c1ccccc1,EC50,[8],7.5 µM (active)
same,EC50,[13],1.43 µM (active)
same,EC50,[14],> 30 µM (not active)
CC(C)(CCc1nc2ccccc2[nH]1)C(=O)O,AC50,Cytochrome P450 2C9,inconclusive
O=C(C1CCN(S(=O)(=O)c2cccc3cccnc23)CC1)N1CCN(c2ccccn2)CC1,AC50,Cytochrome P450 1A2,20 µM (inconclusive)
same,AC50,Cytochrome P450 2C19,7.08 µM (inconclusive)
same,AC50,Cytochrome P450 2C9,inconclusive
O=C(CSc1nc2nncc-2c(O)n1-c1ccccc1Br)NCc1ccccc1Cl,EC50,[8],2.99 µM (active)
CCOc1ccc(NS(=O)(=O)c2ccc(C(=O)N(C)CCc3ccc(OC)c(OC)c3)cc2)cc1,AC50,[2],4.78 µM (active)
same,AC50,[3],3.4 µM (active)
same,AC50,[4],5.92 µM (active)
same,AC50,[5],2.58 µM (active)
CCOc1ccccc1N(C(=O)CNC(=O)c1ccco1)C(C(=O)NC1CCCC1)c1cccnc1 (stereo unspecified),AC50,[2],9.65 µM (active)
same,AC50,[3],7.37 µM (active)
same,AC50,[4],3.91 µM (active)
same,AC50,[5],6.15 µM (active)
CC(C)(C)CN1CCNC[C@H]1Cc1cccc2ccccc12,IC50,[7],> 20 µM (inactive)
C[C@H](CO)N1C[C@H](C)[C@H](CN(C)S(=O)(=O)c2ccc(F)cc2)Oc2ncc(/C=C/c3ccccc3)cc2C1=O,AC50,[3],16.5 µM (active)
same,AC50,[4],28.3 µM (active)
same,AC50,[5],13.9 µM (active)
O/N=C/c1ccccc1Oc1ccc(Cl)cc1,EC50,[8],6.68 µM (active)
Cc1ccc(S(=O)(=O)O/N=C2/CCCc3occc32)cc1,AC50,Cytochrome P450 2C19,35.5 µM (inconclusive)
same,AC50,Cytochrome P450 2C9,inconclusive
COc1ccc2c3c(n(C)c2c1)[C@H](CO)NCC31CCN(S(=O)(=O)c2cccc(F)c2)CC1,AC50,[15],4.66 µM (active)
same,AC50,[16],> 39 µM (inactive)
O=C(C1CCCC1)N1CC(=O)N2[C@@H](CO)[C@H](c3ccc(C#CCc4ccccc4)cc3)[C@@H]2C1,AC50,[15],2.47 µM (active)
same,AC50,[16],8.92 µM (active)
